This data set in a line: refractive index (other wavelength) (dimensionless). The settings on record: 100 kPa, Liquid, Wavelength=632.8 nm, He-Ne laser.

The values below come from the NIST ThermoML archive (doi:10.1016/j.jct.2012.04.018).

± gives the expanded uncertainty stated by the source.

As for `CCCCCCCCCCC` [undecane], the refractive index (280.08 K) is 1.4216 ± 0.0003; the refractive index (281.97 K) is recorded as 1.4209 ± 0.0003; the refractive index (283.66 K) was 1.4201 ± 0.0003; the refractive index (285.71 K) amounted to 1.4192 ± 0.0003; the refractive index (287.84 K) came to 1.4182 ± 0.0003; the refractive index (290.47 K) amounted to 1.4171 ± 0.0003.
In the case of `N#Cc1ccccc1` [benzonitrile], the refractive index by setting is: (280.98 K) 1.5309 ± 0.0003; (281.89 K) 1.5304 ± 0.0003; (283.78 K) 1.5296 ± 0.0003; (286.19 K) 1.5284 ± 0.0003; (288.04 K) 1.5275 ± 0.0003; (290.13 K) 1.5266 ± 0.0003.

Usually refractive index stands for a measure of how strongly the sample bends light.
